The target in test [1] is T1, human D4 receptor (D4.2 sub-type) (Homo sapiens, UniProt P21917, DEL265-296).
T1 construct: expressed in transfected cells; host or cells: HEK 298 (human embryonic kidney) cells (so in the source); homogenate of stably transfected cells
T1 sequence (P21917 with tags, fused parts or gaps DEL265-296): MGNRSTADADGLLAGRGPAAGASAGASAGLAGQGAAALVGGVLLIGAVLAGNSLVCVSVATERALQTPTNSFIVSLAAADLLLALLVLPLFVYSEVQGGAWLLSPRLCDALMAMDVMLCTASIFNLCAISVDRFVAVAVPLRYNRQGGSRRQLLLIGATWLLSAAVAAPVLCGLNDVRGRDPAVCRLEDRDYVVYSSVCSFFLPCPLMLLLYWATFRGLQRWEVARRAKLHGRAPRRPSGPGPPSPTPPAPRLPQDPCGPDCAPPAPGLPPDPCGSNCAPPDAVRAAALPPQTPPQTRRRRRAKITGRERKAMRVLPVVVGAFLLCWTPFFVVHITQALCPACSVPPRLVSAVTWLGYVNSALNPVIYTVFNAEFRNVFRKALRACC
As to the kind of experiment: D4 receptor binding: displacement of 3H-spiperone. To be noted: D4 affinity; 3H-spiperone displacement. How it is done:
(§1) The potency of the test compound to reduce ^3 H-spiperone binding directly correlated to its binding affinity for the receptor.
The cells were then centrifuged in a Sorval centrifuge for 10 min, 5000 rpm (GS3 rotor) and the pellets quickly frozen in liquid nitrogen and stored at -80° C. until used in binding assay. When used in the assay, cells were thawed on ice for 20 min and then 1 mL of incubation buffer (50 mM Tris, 1 mM EDTA, 4 mM MgCl2, 5 mM KCl, 1.5 mM CaCl2, 120 mM NaCl, pH7.4) was added. […] Concentration of receptor protein was determined using the Pierce BCA assay.
(§2) The tubes were vortexed and incubated at room temperature for 90 minutes. The binding reaction was stopped by filtering using a Brandell Cell Harvester. The samples were filtered under vacuum over glass fibre filters (Whatman GF/B) presoaked for 2 hours in 0.3% polyethylenimine (PEI) in 50 mM Tris buffer (pH 7.4). The filters were then washed 3 times with 5 ml ice cold 50 mM Tris buffer (pH 7.4). Individual filter disks were put in scintillation vials (Biovials, Bechman). Ready Protein Plus liquid scintillant (5 ml, Beckman) was added and the vials counted by liquid scintillation spectrophotometry (Beckman LSC 6500) after equilibrating for three hours at room temperature to determine total binding (BT).
The tubes were vortexed and incubated at room temperature for 90 minutes at which time the binding reaction was stopped by filtering. The filters were washed and counted using the same procedure as in the total binding assay described above to give the non-specific binding value (NSB).
(§3) The incubation was started by the addition to 12×75 mm polypropylene tubes 500 μl (50 μg protein) membrane homogenate to a solution of 400 μl incubation buffer, 100 μl ([…].) ^3 H-spiperone (90 Ci/mmol, Amersham, diluted in borosilicate glass vial to) and 500 μl of test compound that was prepared from 1 mM stock dissolved in DMSO and stored at -20° C. in polypropylene cryogenic storage vials until dilution in incubation buffer in borosilicate glass vials. The tubes were vortexed and incubated at room temperature for 90 minutes at which time the binding reaction was stopped by filtering. The filters were washed and counted using the same procedure as in the total binding assay described above to give the displacement binding value (BD).
(§4) IC50 was determined from an inhibition response curve, logit-log plot of %B/B0 vs concentration of test compound.
(§5) Ki was calculated by the Cheng and Prustoff transformation: Ki=IC50 /(1+[L]/KD) where [L] is the concentration of ^3 H-spiperone used in the assay and KD is the dissociation constant of ^3 H-spiperone determined independently under the same binding conditions.

For test [2], the target named is T2, human D2 receptor (short isoform) (Homo sapiens, UniProt P14416).
T2 construct: 3H-spiperone displacement
Kind of test: D2 receptor binding (displacement of 3H-spiperone) relative to D4: D2/D4 selectivity. As to conditions: D2/D4 ratio. On the procedure:
as §1
GH4 C1 (rat pituitary) cells stably transfected with the human D2 receptor (short isoform) were grown in CO2 independent media in roller bottles (1500 cm^2) for 10 days. 100 μM ZnSO4 was added to the cells (the D2 promoter being zinc inducible). After 16 hours, fresh media was added to allow the cells to recover for 24 hours. The cells were harvested using versine and then centrifuged in a Sorval centrifuge for 10 minutes, at 5000 rpm (GS3 rotor). Pellets were quickly frozen in liquid nitrogen and stored at -80° C. until used in the binding assays. When used in the assay, cells were thawed on ice for 20 minutes. […] The receptor protein concentration was determined using the Pierce BCA assay.
as §2
This assay employed the same procedures as the non-specific binding assay for D4 with the exception that 2 μM (final conc.) of (-) sulpiride (Research Chemicals Inc.) was used in place of dopamine.
as §3, §4, §5

In the next test the target is T3, human D4 receptors (Homo sapiens, UniProt P21917).
T3 construct: expressed in transfected cells; host or cells: CHO Pro 5 cells, stably expressing
T3 sequence (P21917 1-419): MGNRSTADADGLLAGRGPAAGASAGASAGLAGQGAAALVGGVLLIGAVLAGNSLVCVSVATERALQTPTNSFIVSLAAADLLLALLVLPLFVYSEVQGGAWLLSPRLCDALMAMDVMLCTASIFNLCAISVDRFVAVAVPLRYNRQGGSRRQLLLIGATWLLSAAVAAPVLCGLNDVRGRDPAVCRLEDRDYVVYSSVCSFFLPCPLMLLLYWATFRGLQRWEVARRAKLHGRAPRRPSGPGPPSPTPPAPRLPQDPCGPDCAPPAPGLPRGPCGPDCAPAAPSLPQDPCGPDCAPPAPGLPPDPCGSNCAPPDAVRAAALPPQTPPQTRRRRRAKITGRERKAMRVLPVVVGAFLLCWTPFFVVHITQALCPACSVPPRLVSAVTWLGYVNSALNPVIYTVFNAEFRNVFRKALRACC
Kind of test: Antagonist assay: reversal of dopamine inhibition of forskolin-stimulated adenyl cyclase (cAMP) in CHO Pro 5 cells. The class given is cell-based. As to conditions: dopamine and forskolin both 10 μM; for inhibition at 1 µM: test compound 1 μM, read-out: % REVERSAL OF DOPAMINE EFFECT, 1 μM; for inhibition at 10 µM: test compound 10 μM, read-out: % REVERSAL OF DOPAMINE EFFECT, 10 μM. How it is done:
The D4 receptor responds to dopamine and other agonists by reducing adenyl cyclase mediated production of cyclic AMP. Particular test compounds were assayed for their ability to reverse dopamine inhibition of adenyl cyclase by the following procedure. Forskolin was used to elevate the basal adenyl cyclase activity.
CHO Pro 5 cells stably expressing human D4 receptors were plated in 6 well plates in DMEM (Dulbecco's Modified Eagle Medium)/F12(Nutrient Mixture F12 (Ham)) media with 10% FCS (fetal calf serum) and G418 (Geneticen Disulfate), and incubated at 37° C. in a CO2 incubator. The cells were allowed to grow to about 70% confluence before use in the assay.
The culture media of each well was removed by aspiration, and the wells were washed once with serum free media (SFM) (DMEM/F12) media. Then 2 mL of fresh SFM+IBMX media (SFM with 0.5 mM IBMX (3-isobutyl-1-methylxanthine0.1% ascorbic acid and 10 μM pargyline) was added to each well and then incubated at 37° C. for 10 minutes in CO2 incubator. Following incubation, SFM+IBMX media was aspirated and fresh SFM+IBMX media was added to wells separately with one of a) forskolin (10 μM final conc.); b) dopamine and forskolin (both 10 μM final conc.); […]), and dopamine and forskolin (both 10 μM final conc.). Basal adenyl cyclase activity was determined from wells with only SFM+IBMX media added.
The cells were then incubated at 37° C. for 30 minutes in a CO2 incubator. Following incubation the media was aspirated from each well and then washed once with 2 mL of PBS (phosphate buffered saline). […] The cells from each well were then scraped and transferred into individual Eppendorf tubes. The tubes were centrifuged for 5 min at 4° C., and the supernatants were transferred to new Eppendorf tubes. The pellets were discarded and the supernatants dried using a SpeedVac. The extracts were then reconstituted in 600 μL of 0.1M sodium acetate buffer, pH 6.1, and stored at 4° C. until assayed for cAMP concentration. cAMP content measured in fmoles/well for each extract was determined by EIA (enzyme-immunoassay) using Amersham Biotrak cAMP EIA kit (Amersham RPN 225).
Total inhibition (I0) of forskolin-stimulated adenyl cyclase activity by dopamine was determined as the difference in concentration of cAMP in the forskolin-treated cells (Cf) and dopamine-forskolin treated cells (Cd).
Net inhibition (I) of forskolin-stimulated adenyl cyclase activity by dopamine in the presence of an antagonist was determined as the difference in concentration of cAMP in the forskolin-treated cells (Cf) and test compound, dopamine and forskolin treated cells (C).

A further test addresses D4 receptor. As to conditions: D4 affinity of currently marketed products; cited from earlier work.
Test [3] relates to D4 receptor relative to the D2 receptor. As to conditions: currently marketed products; cited from earlier work.

T2 sequence (P14416 with tags, fused parts or gaps DEL242-270): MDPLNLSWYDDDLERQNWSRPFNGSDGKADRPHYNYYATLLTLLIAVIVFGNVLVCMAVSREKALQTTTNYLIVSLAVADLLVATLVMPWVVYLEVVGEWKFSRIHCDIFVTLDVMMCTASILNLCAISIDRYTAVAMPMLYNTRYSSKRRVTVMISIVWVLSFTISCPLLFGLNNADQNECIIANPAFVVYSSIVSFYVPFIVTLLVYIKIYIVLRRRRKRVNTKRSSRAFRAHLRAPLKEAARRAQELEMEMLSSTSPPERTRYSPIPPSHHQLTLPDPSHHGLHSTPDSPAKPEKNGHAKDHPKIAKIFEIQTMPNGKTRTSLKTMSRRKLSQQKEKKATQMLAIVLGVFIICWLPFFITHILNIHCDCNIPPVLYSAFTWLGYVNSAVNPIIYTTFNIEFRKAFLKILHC

`Clc1ccc2c(c1)N=C(N1CCN3CCCCC3C1)c1ccccc1O2` (racemic) [8-chloro-11-[(R,S)-1,4-diazabicyclo[4.4.0]decan-4-yl]-dibenzo[b,f]-1,4-oxazepine]: in test [1], the Ki was 0.0157 µM. Moreover, the D2/D4 in test [2] is on record as 6.8.

For the compound `Clc1ccc2c(c1)N=C(N1CCN3C[C@@H](OCc4ccccc4)C[C@H]3C1)c1ccccc1O2` [8-chloro-11-[(6S,8S)-8-benzyloxy-1,4-diazabicyclo[4.3.0]non-4-yl]-dibenzo[b,f]-1,4-oxazepine], in test [1], the affinity corresponds to a Ki of 0.024 µM. The D2/D4 in test [2] amounted to 25.6.

The compound `O[C@H]1C[C@H]2CN(C3=Nc4cc(Cl)ccc4Oc4ccccc43)CCN2C1` [8-chloro-11-[(6S,8S)-8-hydroxy-1,4-diazabicyclo[4.3.0]non-4-yl]-dibenzo[b,f]-1,4-oxazepine] displayed a Ki in test [1] of 0.028 µM. For the same compound, the D2/D4 in test [2] turned out to be 18.2.

In test [1], `Clc1ccc2c(c1)N=C(N1CCN3CCC[C@@H]3C1)c1ccccc1O2` [8-chloro-11-[(R)-1,4-diazabicyclo[4.3.0]non-4-yl]-dibenzo[b,f]-1,4-oxazepine] returned a Ki of 0.018 µM. In addition, the D2/D4 in test [2] was 32.2.

In test [1], `Clc1ccc2c(c1)N=C(N1CCN3CCCC[C@@H]3C1)c1ccccc1O2` [8-chloro-11-[(R)-1,4-diazabicyclo[4.4.0]decan-4-yl]-dibenzo[b,f]-1,4-oxazepine] yielded an inhibition constant Ki of 0.402 µM. Moreover, the D2/D4 in test [2] amounted to 4.1.

As for `Clc1ccc2c(c1)N=C(N1CCN3CCC[C@H]3C1)c1ccccc1O2` [8-chloro-11-[(S)-1,4-diazabicyclo[4.3.0]non-4-yl]-dibenzo[b,f]-1,4-oxazepine], the Ki in test [1] is 0.0012 µM. Further, in test [2], the D2/D4 was 104.5. Besides, at human D4 receptors, the inhibition at 1 µM came out at 23% and the inhibition at 10 µM was 48%.

Take `Clc1ccc2c(c1)N=C(N1CCN3CCCC[C@H]3C1)c1ccccc1O2` [8-chloro-11-[(S)-1,4-diazabicyclo[4.4.0]decan-4-yl]-dibenzo[b,f]-1,4-oxazepine]: in test [1], the inhibitory constant (Ki) is 0.001 µM. In addition, in test [2], the D2/D4 is reported as 40. Also, on human D4 receptors, the inhibition at 1 µM was 52% and the inhibition at 10 µM came out at 93%.

`CN1CCN(C2=Nc3cc(Cl)ccc3Oc3ccccc32)CC1` [isoloxapine]: at D4 receptor, the Ki is ~0.02 µM. Also, the “preference for binding the D4 receptor relative to the D2 receptor” value in test [3] is “about 10 fold”.
